Patent US7858635B2 (priority 2005, dated 2010)

Tests used:
M1 muscarinic receptor = biological target: T1, M1 muscarinic receptor (Homo sapiens, UniProt P11229); assay: Functional mobilization of intracellular calcium (FLIPR, Fluo-3), M1-CHO cells; format: cell-based; settings: compound nos. 1-454; for Emax: 100% efficacy is the maximum response obtained with the Carbachol control, read-out: M1 Efficacy
T1 construct: expressed in transfected cells; host or cells: CHO cells (M1-CHO, under zeocin and G418 selection)
T1 sequence (P11229 1-460): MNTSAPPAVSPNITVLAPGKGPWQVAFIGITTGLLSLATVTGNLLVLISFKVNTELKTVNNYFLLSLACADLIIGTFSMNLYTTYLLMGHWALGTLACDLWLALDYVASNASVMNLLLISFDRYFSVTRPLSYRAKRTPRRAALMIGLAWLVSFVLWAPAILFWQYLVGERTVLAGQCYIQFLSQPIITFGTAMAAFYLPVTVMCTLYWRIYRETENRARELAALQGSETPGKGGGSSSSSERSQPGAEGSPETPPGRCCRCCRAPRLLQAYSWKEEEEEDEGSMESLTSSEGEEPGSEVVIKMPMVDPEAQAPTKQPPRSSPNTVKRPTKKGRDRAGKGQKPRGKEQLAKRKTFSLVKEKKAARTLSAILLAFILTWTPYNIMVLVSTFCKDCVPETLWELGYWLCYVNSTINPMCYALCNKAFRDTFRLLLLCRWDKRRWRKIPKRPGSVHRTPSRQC
Procedure, shortened: (§1)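 Fluo-3 read-out, ex 488/em 540 nm, 60 sec on FLIPR 3. For agonist mode, compound added directly; for inhibition, 15 min compound pre-incubation before carbachol at EC80 (added as a 3× solution), or co-application. Buffer pH 7.4 with 1 mM probenecid; DMSO 0.5%.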

M4 muscarinic receptor = biological target: T2, M4 muscarinic receptor (Homo sapiens, UniProt P08173); assay: Functional mobilization of intracellular calcium (FLIPR, Fluo-3), M4-CHO cells; format: cell-based; settings: compound nos. 1-454; for Emax: 100% efficacy is the maximum response obtained with the Carbachol control, read-out: M4 Efficacy
T2 construct: expressed in transfected cells; host or cells: CHO cells (M4-CHO, under puromycin, zeocin and blasticidin selection)
T2 sequence (P08173 1-479): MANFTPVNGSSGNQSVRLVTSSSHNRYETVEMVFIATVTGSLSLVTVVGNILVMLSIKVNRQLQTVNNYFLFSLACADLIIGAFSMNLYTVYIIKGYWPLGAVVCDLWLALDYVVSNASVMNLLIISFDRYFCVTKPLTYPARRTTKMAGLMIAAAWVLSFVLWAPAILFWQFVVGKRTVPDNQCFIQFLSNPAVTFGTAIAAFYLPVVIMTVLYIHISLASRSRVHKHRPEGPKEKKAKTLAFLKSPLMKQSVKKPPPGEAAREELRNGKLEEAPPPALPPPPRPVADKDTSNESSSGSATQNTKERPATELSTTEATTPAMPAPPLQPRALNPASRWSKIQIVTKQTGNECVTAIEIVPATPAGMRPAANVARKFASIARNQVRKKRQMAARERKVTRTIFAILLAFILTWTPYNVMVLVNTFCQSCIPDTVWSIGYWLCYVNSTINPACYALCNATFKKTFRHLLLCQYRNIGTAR
Procedure, shortened: as §1

[1] = M1-CHO cells, calcium mobilization
[2] = M4-CHO cells, calcium mobilization

Row | Structure (SMILES) | M1 Activity (M1 muscarinic receptor) | Emax (M1 muscarinic receptor) | M4 Activity (M4 muscarinic receptor) | Emax (M4 muscarinic receptor) | M1 Activity (M1 muscarinic receptor; [1]) | M4 Activity (M4 muscarinic receptor; [2])
1 | COc1cccc(N2CCC(N3CCC4(CC3)CN(C(=O)N(C)C)c3ccc(F)cc34)CC2)c1 [compound 441] | ++ (activity was measured to be between 0.7 μM and 3.0 μM) | 65 to 85% | +++ (activity was measured to be less than or equal to 0.1 μM) | 55 to 70% |  | 
2 | Cc1ccc2c(c1)C1(CCN(C3CC4CCC3C4)CC1)CN2C(=O)c1cc(C)n(C)n1 (stereo not shown) [compound 211] |  | 65 to 85% |  | < 55% | + (activity was measured to be greater than or equal to 3.0 μM) | + (activity was measured to be greater than or equal to 4.0 μM)
3 | CC(=O)N1CC2(CCN(C3CCN(C(=O)OC(C)C)CC3)CC2)c2cc(C)ccc21 [compound 380] | +++ (activity was measured to be less than or equal to 0.7 μM) | 65 to 85% | ++ (activity was measured to be between 0.1 μM and 4.0 μM) | 55 to 70% |  | 
4 | CCOC(=O)N1CCC(N2CCC3(CC2)CN(C(C)=O)c2ccc(-c4ccc(NC(C)=O)cc4)cc23)CC1 [compound 10] |  | 65 to 85% |  | 55 to 70% | ++ (activity was measured to be between 0.7 μM and 3.0 μM) | ++ (activity was measured to be between 0.1 μM and 4.0 μM)
5 | Fc1ccc2c(c1)C1(CCN(C[C@H]3C[C@H]4CC[C@H]3O4)CC1)CN2 [compound 300] |  | 65 to 85% |  | < 55% | ++ (activity was measured to be between 0.7 μM and 3.0 μM) | + (activity was measured to be greater than or equal to 4.0 μM)
6 | COCCOC(=O)N1C2CCC1CC(N1CCC3(CC1)CN(C(C)=O)c1ccc(F)cc13)C2 (stereo not shown) [compound 76] |  | 65 to 85% |  | 55 to 70% | +++ (activity was measured to be less than or equal to 0.7 μM) | ++ (activity was measured to be between 0.1 μM and 4.0 μM)
7 | Clc1ccc2c(c1)C1(CCO2)CCN(C2CCOCC2)CC1 [compound 178] |  | > 85% |  | 55 to 70% | ++ (activity was measured to be between 0.7 μM and 3.0 μM) | + (activity was measured to be greater than or equal to 4.0 μM)
8 | CCOC(=O)N1CCC(CN2CCC3(CC2)C(=O)N(C)c2ccccc23)CC1 [compound 327] |  | < 65% |  | < 55% | + (activity was measured to be greater than or equal to 3.0 μM) | + (activity was measured to be greater than or equal to 4.0 μM)
9 | CCOC(=O)N1C2CCC1CC(N1CCC3(CC1)CN(C(=O)O[C@@H]1CCOC1)c1ccc(F)cc13)C2 (stereo partly shown) [compound 344] |  | 65 to 85% |  | < 55% | +++ (activity was measured to be less than or equal to 0.7 μM) | ++ (activity was measured to be between 0.1 μM and 4.0 μM)
10 | CS(=O)(=O)N[C@@H]1CC2(CCN(C[C@H]3C[C@H]4CC[C@H]3C4)CC2)c2ccccc21 [compound 227] |  | > 85% |  | > 70% | +++ (activity was measured to be less than or equal to 0.7 μM) | +++ (activity was measured to be less than or equal to 0.1 μM)
11 | CC(C)OC(=O)N1C2CCC1CC(N1CCC3(CCc4ccccc43)CC1)C2 (stereo not shown) [compound 285] |  | < 65% |  | < 55% | ++ (activity was measured to be between 0.7 μM and 3.0 μM) | + (activity was measured to be greater than or equal to 4.0 μM)
12 | CCOC(=O)N1CCC(CN2CCC3(CC2)CN(C(C)=O)c2ccc(F)cc23)CC1 [compound 60] |  | 65 to 85% |  | 55 to 70% | ++ (activity was measured to be between 0.7 μM and 3.0 μM) | + (activity was measured to be greater than or equal to 4.0 μM)
13 | CCCCOC(=O)N1CC2(CCN(C3CCN(C(=O)OCC)CC3)CC2)c2cc(F)ccc21 [compound 220] |  | 65 to 85% |  | < 55% | + (activity was measured to be greater than or equal to 3.0 μM) | + (activity was measured to be greater than or equal to 4.0 μM)
